Data as given in patent publication US20240270821A1, “GIP/GLP1/GCG TRI-RECEPTOR AGONISTS AND USES THEREOF” (priority 2023, published 2024).
Like-named read-outs stand apart in the source and are kept apart here. Starred links: 1 amine or outer side, 2 acyl side, 3 side chain; linkers in the order of their positions; H or OH if unused. Non-standard residues stand in square brackets, D forms with d. Residues, ends and D or L forms follow the SMILES beside them. Groups on a side chain read outwards from the residue. No end group written: not given here. *: point of attachment. C20 diacid = O=C(O)CCCCCCCCCCCCCCCCCCC(=O)*; C18 diacid = O=C(O)CCCCCCCCCCCCCCCCC(=O)*; αMePhe(2-F) = C[C@](N)(Cc1ccccc1F)C(=O)O; γGlu = O=C(O)[C@H](CCC(=O)[*:2])N[*:1]; αMe4Pal = C[C@](N)(Cc1ccncc1)C(=O)O; αMeY = C[C@](N)(Cc1ccc(O)cc1)C(=O)O; αMeF = C[C@](N)(Cc1ccccc1)C(=O)O; 4Pal = N[C@@H](Cc1ccncc1)C(=O)O; Aad = N[C@@H](CCCC(=O)O)C(=O)O; αMeL = CC(C)C[C@](C)(N)C(=O)O; αMeS = C[C@](N)(CO)C(=O)O; Orn = NCCC[C@H](N)C(=O)O; AEEA = NCCOCCOCC(=O)O; Aib = CC(C)(N)C(=O)O

Columns and labels:
Type in all cases: cell-based
[1] = molecular target: T1, hGIPR (Homo sapiens, UniProt P48546); assay: Functional cAMP activity in the presence of 1% HSA; details: read-out: cAMP Rel EC50, hGIPR
T1 sequence (P48546 22-466): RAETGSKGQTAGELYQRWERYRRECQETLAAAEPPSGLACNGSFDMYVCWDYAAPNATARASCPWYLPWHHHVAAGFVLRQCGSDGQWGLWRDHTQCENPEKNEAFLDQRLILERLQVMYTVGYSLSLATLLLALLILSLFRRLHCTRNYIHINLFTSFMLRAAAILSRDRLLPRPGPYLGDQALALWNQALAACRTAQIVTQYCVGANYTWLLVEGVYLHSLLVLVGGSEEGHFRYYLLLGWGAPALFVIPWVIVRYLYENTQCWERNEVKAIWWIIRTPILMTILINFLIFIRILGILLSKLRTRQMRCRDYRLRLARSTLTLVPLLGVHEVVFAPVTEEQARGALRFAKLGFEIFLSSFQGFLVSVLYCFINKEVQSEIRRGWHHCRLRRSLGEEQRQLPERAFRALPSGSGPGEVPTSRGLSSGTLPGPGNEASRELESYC

[2] = molecular target: T2, hGLP-1R (Homo sapiens, UniProt P43220); assay: Functional cAMP activity in the presence of 1% HSA; details: read-out: cAMP Rel EC50, hGLP-1R
T2 sequence (P43220 24-463): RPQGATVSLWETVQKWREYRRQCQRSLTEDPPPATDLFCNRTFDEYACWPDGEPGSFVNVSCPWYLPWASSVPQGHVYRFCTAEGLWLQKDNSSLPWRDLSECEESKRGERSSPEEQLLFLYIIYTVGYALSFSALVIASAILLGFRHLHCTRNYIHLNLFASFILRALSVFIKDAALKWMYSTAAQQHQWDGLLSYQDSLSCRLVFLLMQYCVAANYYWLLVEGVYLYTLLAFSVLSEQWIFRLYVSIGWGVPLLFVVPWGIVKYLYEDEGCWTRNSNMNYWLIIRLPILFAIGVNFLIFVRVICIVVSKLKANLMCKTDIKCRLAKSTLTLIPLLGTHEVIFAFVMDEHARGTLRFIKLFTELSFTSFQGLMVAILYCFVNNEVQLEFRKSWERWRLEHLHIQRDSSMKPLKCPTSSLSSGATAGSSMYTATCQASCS

[3] = molecular target: human GcgR (Homo sapiens, UniProt P47871); assay: Functional cAMP activity in the presence of 1% HSA; details: read-out: cAMP Rel EC50, hGcgR
Sequence of human GcgR (P47871 26-477): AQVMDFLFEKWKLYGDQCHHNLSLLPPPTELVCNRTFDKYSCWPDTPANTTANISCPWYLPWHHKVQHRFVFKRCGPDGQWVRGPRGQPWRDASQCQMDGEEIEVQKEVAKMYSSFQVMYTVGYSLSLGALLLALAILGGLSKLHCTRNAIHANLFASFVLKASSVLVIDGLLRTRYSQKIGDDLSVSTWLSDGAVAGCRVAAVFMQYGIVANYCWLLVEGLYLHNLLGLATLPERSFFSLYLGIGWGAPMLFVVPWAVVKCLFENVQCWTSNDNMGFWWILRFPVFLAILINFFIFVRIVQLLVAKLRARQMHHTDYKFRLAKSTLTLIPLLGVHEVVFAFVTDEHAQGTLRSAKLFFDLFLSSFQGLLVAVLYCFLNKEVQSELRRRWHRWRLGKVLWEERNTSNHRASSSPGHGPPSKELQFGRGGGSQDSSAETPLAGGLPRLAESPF

[4] = molecular target: T1, hGIPR; assay: Functional cAMP activation in the presence of 0.1% casein (no HSA); details: read-out: Relative cAMP EC50, hGIPR;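 for Relative cAMP EC50, hGIPR: intracellular cAMP rise after 30 min at 37 °C read by HTRF against a standard curve, scaled between buffer alone (0%) and top control ligand concentration (100%), four-parameter fit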;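 for Relative cAMP EC50, hGLP-1R: intracellular cAMP rise after 30 min at 37 °C read by HTRF, normalized between buffer only (0%) and maximal control ligand (100%), four-parameter variable-slope fit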;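 for Relative cAMP EC50, hGcgR: intracellular cAMP rise after 30 min at 37 °C, read by HTRF against a cAMP standard curve, scaled from buffer only (0%) to maximal control ligand response (100%)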
[5] = molecular target: T2, hGLP-1R; assay: as above; details: read-out: Relative cAMP EC50, hGLP-1R
[6] = molecular target: hGcgR (Homo sapiens, UniProt P47871); assay: as above; details: read-out: Relative cAMP EC50, hGcgR;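 note: intracellular cAMP rise after 30 min at 37 °C, read by HTRF against a cAMP standard curve, scaled from buffer only (0%) to maximal control ligand response (100%)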
Sequence of hGcgR (P47871 26-477): as above

[7] = in the presence of 0.1% casein (no HSA), geometric mean

Molecule | EC50 [1] [nM] | EC50 [2] [nM] | EC50 [3] [nM] | EC50 [4] [nM] | EC50 [5] [nM] | EC50 [6] [nM] | EC50 [4, 7] [nM] | EC50 [5, 7] [nM] | EC50 [6, 7] [nM]
Y[Aib]QGT[αMePhe(2-F)]TSD[4Pal][αMeS]I[αMeL]LD[Orn]K([AEEA-γGlu-C18 diacid])AQ[αMe4Pal]EFI[dE][αMeY]LVEGGPSSGEPPPSGGGE-NH2 [Example 735] | 1.32 | 40.7 | 236 | 0.012 | 0.386 | 1.97 | – | – | –
Y[Aib]QGTFTSD[4Pal]SR[αMeL]LDKK([AEEA-γGlu-C18 diacid])AQ[αMe4Pal]AFIE[αMe4Pal]LIEGGPSSGAPPPSGS-NH2 [Example 950] | 18.1 | 328 | 327 | – | – | – | 0.18 | 2.5 | 1.92
H-Y[Aib]QGTFTSD[4Pal]SQ[αMeL]LDKK([AEEA-γGlu-C18 diacid])AQ[αMe4Pal]AFIEYLIE[Aib]GPSSGAPPPSGSEEE-NH2 [Example 898] | 25.5 | 584 | 770 | – | – | – | 0.287 | 4.62 | 3.39
H-Y[Aib]QGT[αMePhe(2-F)]TSD[4Pal]SILLDKK([γGlu-γGlu-C18 diacid])AQ[Aib]AFIEYLQEGGPSSGAPPPSGTE-NH2 [Example 553] | 2.97 | 51 | 523 | 0.0371 | 0.398 | 4.53 | – | – | –
Y[Aib]QGTFTSD[4Pal]SQ[αMeL]LDKK([dE-γGlu-dE-C18 diacid])AQ[αMe4Pal]AFIEYLIE[Aib]GPSSGAPPPSGS-NH2 [Example 923] | 18.5 | 870 | 1840 | – | – | – | 0.123 | 6.23 | 9.1
Y[Aib]QGTFTSD[4Pal]SQ[αMeL]LDKK([γGlu-dE-dE-C18 diacid])AQ[αMe4Pal]AFIEYLIE[Aib]GPSSGAPPPSGSEE-NH2 [Example 930] | 19.9 | 824 | 1700 | – | – | – | 0.244 | 11 | 13
H-Y[Aib]QGTFTSD[4Pal]SQ[αMeL]LDKK([γGlu-γGlu-C18 diacid])AQ[αMe4Pal]AFIE[αMe4Pal]LIE[Aib]GPSSGAPPPSGTGE-NH2 [Example 1119] | 3.95 | 152 | 237 | – | – | – | 0.0939 | 3.57 | 7.61
CC[C@H](C)[C@H](NC(=O)[C@H](Cc1ccccc1)NC(=O)[C@H](C)NC(=O)C(C)(C)NC(=O)[C@H](CCC(N)=O)NC(=O)[C@H](C)NC(=O)[C@H](CCCCNC(=O)COCCOCCNC(=O)COCCOCCNC(=O)CC[C@H](NC(=O)CCCCCCCCCCCCCCCCC(=O)O)C(=O)O)NC(=O)[C@H](CCCCN)NC(=O)[C@H](CC(=O)O)NC(=O)[C@H](CC(C)C)NC(=O)[C@](C)(CC(C)C)NC(=O)[C@H](CCCN)NC(=O)[C@H](CO)NC(=O)[C@H](Cc1ccccc1)NC(=O)[C@H](CC(=O)O)NC(=O)[C@H](CO)NC(=O)[C@@H](NC(=O)[C@H](Cc1ccccc1)NC(=O)[C@@H](NC(=O)CNC(=O)[C@H](CCC(N)=O)NC(=O)C(C)(C)NC(=O)[C@@H](N)Cc1ccc(O)cc1)[C@@H](C)O)[C@@H](C)O)C(=O)N[C@@H](CCC(=O)O)C(=O)N[C@@H](Cc1ccc(O)cc1)C(=O)N[C@@H](CC(C)C)C(=O)N[C@@H](CC(C)C)C(=O)N[C@@H](CCC(=O)O)C(=O)N[C@H](C)C(=O)NCC(=O)N1CCC[C@H]1C(=O)N[C@@H](CO)C(=O)N[C@@H](CO)C(=O)NCC(=O)N[C@@H](C)C(=O)N1CCC[C@H]1C(=O)N1CCC[C@H]1C(=O)N1CCC[C@H]1C(=O)N[C@@H](CO)C(=O)NCC(=O)N[C@@H](CCC(=O)O)C(N)=O [Example 128] | 24.3 | 679 | 1090 | – | – | – | 0.307 | 3.5 | 6.76
H-Y[Aib]QGT[αMePhe(2-F)]TSD[4Pal][αMeS]I[αMeL]LD[Orn]K([AEEA-γGlu-C18 diacid])AA[Aib]EFI[dE][αMeY]LIEGGPSSGAPPPSGTEQ-OH [Example 726] | 1.22 | 33.3 | 226 | 0.013 | 0.247 | 1.71 | – | – | –
H-Y[Aib]QGT[αMePhe(2-F)]TSD[4Pal][αMeS]I[αMeL]LD[Orn]K([AEEA-γGlu-C18 diacid])AQ[αMe4Pal]EFI[dE][αMeY]LVEGGPSSGAPPPSGE-NH2 [Example 749] | 1.47 | 33.9 | 28 | 0.00718 | 0.293 | 2.21 | – | – | –
CC[C@H](C)[C@H](NC(=O)[C@H](Cc1ccccc1)NC(=O)[C@H](C)NC(=O)C(C)(C)NC(=O)[C@H](CCC(N)=O)NC(=O)[C@H](C)NC(=O)[C@H](CCCCNC(=O)COCCOCCNC(=O)CC[C@H](NC(=O)CCCCCCCCCCCCCCCCC(=O)O)C(=O)O)NC(=O)[C@H](CCCCN)NC(=O)[C@H](CC(=O)O)NC(=O)[C@H](CC(C)C)NC(=O)[C@](C)(CC(C)C)NC(=O)[C@@H](NC(=O)[C@H](CO)NC(=O)[C@H](Cc1ccc(O)cc1)NC(=O)[C@H](CC(=O)O)NC(=O)[C@H](CO)NC(=O)[C@@H](NC(=O)[C@](C)(Cc1ccccc1)NC(=O)[C@@H](NC(=O)CNC(=O)[C@H](CCC(N)=O)NC(=O)C(C)(C)NC(=O)[C@@H](N)Cc1ccc(O)cc1)[C@@H](C)O)[C@@H](C)O)[C@@H](C)CC)C(=O)N[C@@H](CCC(=O)O)C(=O)N[C@@H](Cc1ccc(O)cc1)C(=O)N[C@@H](CC(C)C)C(=O)N[C@@H](CCC(=O)O)C(=O)N[C@@H](CCC(=O)O)C(=O)NCC(=O)NCC(=O)N1CCC[C@H]1C(=O)N[C@@H](CO)C(=O)N[C@@H](CO)C(=O)NCC(=O)N[C@@H](C)C(=O)N1CCC[C@H]1C(=O)N1CCC[C@H]1C(=O)N1CCC[C@H]1C(=O)N[C@@H](CO)C(N)=O [Example 394] (H-Y[Aib]QGT[αMeF]TSDYSI[αMeL]LDKK([AEEA-γGlu-C18 diacid])AQ[Aib]AFIEYLEEGGPSSGAPPPS-NH2) | 7.22 | 33.2 | 1090 | 0.018 | 0.226 | 5.63 | – | – | –
H-Y[Aib]QGTFTSDFS[Orn][αMeL]LDKK([γGlu-γGlu-γGlu-C18 diacid])AQ[Aib]AFIEYLLE[Aib]GPSSGAPPPSGS-NH2 [Example 202] | 11.7 | 376 | 697 | – | – | – | 0.0965 | 4.79 | 11.4
H-Y[Aib]QGTFTSD[4Pal]SK[αMeL]LDKK([AEEA-γGlu-C18 diacid])AQ[Aib]AFIEYLIE[dA]GESSGEPPPSGS-NH2 [Example 284] | 59.8 | 271 | 1530 | – | – | – | 0.347 | 1.54 | 9.21
H-Y[Aib]QGT[αMeF]TSD[4Pal][αMeS]I[αMeL]LD[Orn]K([γGlu-γGlu-C18 diacid])AQ[αMe4Pal]EFI[dE][αMeY]LIEGGPSSGEPPPSGGGE-NH2 [Example 1175] | 0.768 | 60.7 | 282 | – | – | – | 0.00962 | 0.572 | 2.08
H-Y[Aib]QGT[αMePhe(2-F)]TSD[4Pal][αMeS]I[αMeL]LD[Orn]K([γGlu-γGlu-C18 diacid])AQ[Aib][Orn]FI[dE][αMeY]LSEGGPSSGEPPPSGGE-NH2 [Example 559] | 9.15 | 49.7 | 323 | 0.119 | 0.542 | 4.07 | – | – | –
H-Y[Aib]QGTFTSDFS[Orn][αMeL]LDKK([AEEA-γGlu-C20 diacid])AQ[Aib]AFIEYLLEGGPSSGEPPPSEG-NH2 [Example 59] | 166 | 1370 | 2160 | – | – | – | 0.54 | 4.8 | 6.57
H-Y[Aib]QGT[αMePhe(2-F)]TSD[4Pal]SILLDKK([AEEA-γGlu-C18 diacid])AQ[Aib]AFIEYL[Aad]EGGPSSGAPPPSGTGE-NH2 [Example 663] | 10.2 | 79 | 226 | 0.0893 | 1.29 | 1.95 | – | – | –
H-Y[Aib]QGTFTSD[4Pal]SK[αMeL]LDKK([AEEA-γGlu-C18 diacid])AQ[αMe4Pal]AFIEYLIE[Aib]GPSSGAPPPSGS-NH2 [Example 915] | 15.3 | 226 | 174 | – | – | – | 0.0988 | 1.5 | 0.882
H-Y[Aib]QGTFTSD[4Pal]SQ[αMeL]LDKK([AEEA-γGlu-γGlu-C18 diacid])AQ[αMe4Pal]AFIEWLIEGGPSSGAPPPSGS-NH2 [Example 871] | 35.4 | 230 | 2060 | – | – | – | 0.2 | 2.92 | 12.6
H-Y[Aib]QGTFTSDFS[Orn][αMeL]LDKK([AEEA-γGlu-C18 diacid])AQ[Aib]AFIEYLLEGGESSGAPPPSGS-NH2 [Example 145] | 108 | 1480 | 693 | – | – | – | 0.539 | 4.26 | 3.14
